Data reported in PMC6316600, “Analgesic Activity of Acid-Sensing Ion Channel 3 (ASIС3) Inhibitors: Sea Anemones Peptides Ugr9-1 and APETx2 versus Low Molecular Weight Compounds” (Marine Drugs, 2018).
“Also recorded” adds a separate entry of the source. Bridge positions count the residues as written; N and C are the ends. Peptide text beside a SMILES is read from it.

Legend:
ASIC3 = details: cited from earlier work
Source text: An inhibition of ASIC3 was reported to be an attractive approach to producing analgesia. […] Other nonspecific substances can also influence ASIC3 activity.

mice [1] = test: CFA-induced thermal hyperalgesia; assay type: in vivo, CD-1 mice; details: for Effect in CFA test at lowest dose / Dose dependence of effect, thermal hyperalgesia / Dose of maximal effect, thermal hyperalgesia / Reversal of thermal hyperalgesia, 1 mg/kg compared with 0.001–0.002 mg/kg / Thermal hyperalgesia result (in words): intramuscular; for Effect confirmed in independent experiment: sevanol 0.01 mg/kg, Ugr9-1 0.02 mg/kg, data not shown
Protocol: CFA-induced thermal hyperalgesia is a result of different inflammatory pathways’ action on thermal sensitivity of the paw. Injection of CFA into the hind paw provokes increased sensitivity to noxious mechanical and thermal stimuli together with swelling of the paw due to the inflammatory process. […] For APETx2 (Figure 4B), sevanol (Figure 4C), and Ugr9-1 (Figure 4D), the dose dependency of the analgesic effect was evaluated.
Figure 4 Effect of ligands on the CFA-induced thermal hyperalgesia test. Test was performed 2 h after intramuscular administration of ASIC3 antagonists. (A) Comparison between ligands at the dose of 1 mg/kg; (B–D) Dose-dependent chart of ligands’ effect. […] Results are presented as mean ± SEM (n = 7–8). * p < 0.05, ** p < 0.01, *** p < 0.001 versus saline group (ANOVA followed by a Tukey’s test).
(§1) Adult male CD-1 mice (Animal Breeding Facility Branch of Shemyakin-Ovchinnikov Institute of Bioorganic Chemistry, Russian Academy of Sciences, Pushchino, Russia) weighing 20–25 g were used. Animals that originally passed clinical examination that confirmed no deviations in health were divided into groups (at least eight male mice per group) using the principle of randomization. The average body weight of animals in each group was not statistically different between groups. Animals were housed at room temperature (23 ± 2 °C) and subjected to a 12-h light-dark cycle with food and water available ad libitum. All experiments were performed after receiving approval from the Animal Care and Use Committee of the Branch of the Institute of Bioorganic Chemistry, Russian Academy of Sciences (IBCh RAS) (Pushchino, Russia Federation). The samples were administered intramuscularly 2 h before testing (4 h in the open field test). The initial dose of 1 mg/kg was investigated for all samples, which was further reduced 5, 50, and 500 times for peptides.
(§2) CFA suspended in an oil/saline (1:1) emulsion was injected into the dorsal surfaces of the left hind paws of mice (20 µL/paw) 24 h before the samples’ intramuscular injection. The control mice received 20 µL of saline (intraplantar). The paw withdrawal latencies to thermal stimulation (53 °C) were measured 2 h after the sample injection. The paw diameter was evaluated before the CFA injection, before the samples and saline administration, and 2, 4, and 24 h after the administration using a digital calliper.
(§3) The data significance in animal tests was determined by an analysis of variance followed by a Tukey’s test. Data are presented as the mean ± SEM.

mice [2] = test: CFA-induced paw oedema; assay type: in vivo, CD-1 mice; details: n = 7–8; for Reduction of inflammation (paw oedema): within 24 h; for Anti-inflammatory effect within 4 h: intramuscular, within 4 h after administration
Protocol: To reveal the anti-inflammatory effects of ASIC3 antagonists, paw oedema changes were also evaluated (Figure 5). […] APETx2 in a dose of 1 mg/kg reduced paw oedema by 16%, 24%, and 44% compared to the control group at 2, 4, and 24 h after administration, respectively. APETx2 at 0.2 mg/kg reduced inflammation by approximately 20% only 24 h after administration.
Figure 5 Anti-inflammatory effect of ligands. […] Results are presented as mean ± SEM (n = 7–8). * p < 0.05, ** p < 0.01, *** p < 0.001 versus saline group (ANOVA followed by a Tukey’s test).
as §1, §2, §3

mice [3] = test: Acetic acid-induced writhing; assay type: in vivo, CD-1 mice
Protocol: Acetic acid-induced writhing is based on irritation of tissues and organs of the abdomen by low pH and could be considered the most appropriate test for influence on acid-induced pain. […] It is interesting that the effects of sevanol and Ugr9-1 plateaued at a wide range of doses (0.01–1mg/kg for sevanol and 0.02–1 mg/kg Ugr9-1) (Figure 3C,D).
Figure 3 Effects of ligands in an acetic acid-induced writhing test. […] (A) Efficacy of ASIC3 antagonists at a dose of 1 mg/kg. (B–D) Dose-dependent chart of ligands’ effects: APETx2 (B), sevanol (C), and Ugr9-1 (D). Results are presented as mean ± SEM (n = 8). ** p < 0.01, *** p < 0.001 versus saline group (ANOVA followed by a Tukey’s test).
as §1, with “The initial dose of 1 mg/kg was investigated for all samples, which was further reduced 5, 50, and 500 times for peptides.” left out
Separate groups of mice were used. Writhes were caused 2 h after the intramuscular injection of the samples (saline for control mice) with the injection of 0.6% acetic acid in saline (10 mL/kg intraperitoneally). Mice were immediately placed inside transparent glass cylinders, and the latency of a first writhe and the number of writhes were recorded for 15 min.
as §3

[4] = intramuscular, 2 h before, n = 8

Structure (SMILES) | Inhibition of ASIC3 current components (ASIC3) | Effect in CFA test at lowest dose (mice [1]; 0.002 mg/kg (Ugr9-1), 2 h before) | Dose dependence of effect, thermal hyperalgesia (mice [1]; 2 h before, n = 7–8) | Dose of maximal effect, thermal hyperalgesia (mice [1]; 2 h before, n = 7–8) [mg/kg] | Reversal of thermal hyperalgesia, 1 mg/kg compared with 0.001–0.002 mg/kg (mice [1]; 2 h before, n = 7–8) | Thermal hyperalgesia result (in words) (mice [1]; 2 h before, n = 7–8) | Effect confirmed in independent experiment (mice [1]) | Reduction of inflammation (paw oedema) (mice [2]; 0.02 mg/kg intramuscular) [%] | Anti-inflammatory effect within 4 h (mice [2]) | Effective dose, lower than that of APETx2, writhing test (mice [3]; Ugr9-1 versus APETx2) [times] | Writhing test result (in words) (mice [3]; intramuscular, 2 h before) | Dose of maximal effect, writhing test (mice [3]; [4]) [mg/kg] | Inhibition of ASIC3 / ASICs currents (ASIC3; sensory neurons and heterologous-expressed ASIC3) | Reversal of thermal hyperalgesia, comparison at 1 mg/kg (mice [1]; 1 mg/kg intramuscular, 2 h before, hot plate 53 °C, n = 7–8) | Maximal effect of reducing pain, writhing test (mice [3]; intramuscular, 2 h before, all doses) | Inhibition of transient and sustained ASIC3 currents (ASIC3) | Effect in CFA test at lowest dose (mice [1]; 0.001 mg/kg (sevanol), 2 h before) | Reduction of inflammation (paw oedema) (mice [2]; 2.5 mg/kg intramuscular) [%] | Inhibition of writhing (mice [3]; 10 mg/kg intramuscular, 2 h before, n = 8) [%] | In vivo effect, compared with peptides (mice [3]; sevanol versus APETx2 and Ugr9-1)
CC[C@H](C)[C@H](N)C(=O)N[C@@H](CO)C(=O)N[C@H](C(=O)N[C@@H](CC(=O)O)C(=O)N1CCC[C@H]1C(=O)N1CCC[C@H]1C(=O)N[C@H]1CSSC[C@@H](C(=O)NCC(=O)N[C@@H](C)C(=O)N[C@H](C(=O)O)C(C)C)NC(=O)CNC(=O)[C@H](Cc2ccc(O)cc2)NC(=O)[C@H](C)NC(=O)[C@H](CC(=O)O)NC(=O)[C@H](Cc2ccc(O)cc2)NC(=O)[C@H](C(C)C)NC(=O)[C@@H]2CSSC[C@H](NC(=O)[C@H](Cc3ccccc3)NC(=O)[C@H](CCCNC(=N)N)NC1=O)C(=O)N[C@@H](Cc1ccc(O)cc1)C(=O)N[C@@H](Cc1c[nH]cn1)C(=O)N[C@@H](CCCNC(=N)N)C(=O)N[C@@H](CC(=O)O)C(=O)NCC(=O)N[C@@H](CO)C(=O)NCC(=O)N[C@@H](CC(N)=O)C(=O)N2)[C@@H](C)CC [Ugr9-1] (H-ISIDPPCRFCYHRDGSGNCVYDAYGCGAV-OH; disulfide 7-26, 10-19; N-terminus and C-terminus assumed) | inhibit both components of the ASIC3 current | absence of the effect | bell-shaped; also recorded: nonlinear dose response | 0.02 | did not differ significantly | reversed CFA-induced thermal hyperalgesia and prolonging withdrawal latency of the inflamed hind paw on a hot plate | confirmed in the independent experiment | 31 | did not produce significant anti-inflammatory effects within 4 h | 10 | attenuated the response to the intraperitoneal administration of acetic acid; also recorded: The most stable effect was produced by Ugr9-1, and it was slightly more significant in lower doses (0.002 mg/kg) | 0.02 |  |  |  |  |  |  |  | 
O=C(O)Cc1ccccc1Nc1c(Cl)cccc1Cl [diclofenac, reference compound] |  |  |  |  |  |  |  |  | did not produce significant anti-inflammatory effects within 4 h |  |  |  | inhibit ASICs currents directly on sensory neurons and heterologous-expressed ASIC3 channels | equal potency in the reversal of thermal hyperalgesia, which exceeded the analgesic potency of sevanol and Ugr9-1 | ~ 75% |  |  |  |  | 
O=C(O)C[C@H](C(=O)O)[C@@H](OC(=O)C1=Cc2cc(O)c(O)cc2[C@@H](c2ccc(O)c(O)c2)[C@@H]1C(=O)O[C@@H](C(=O)O)[C@H](CC(=O)O)C(=O)O)C(=O)O [sevanol] |  |  | bell-shaped; also recorded: nonlinear dose response | 0.01 | did not differ significantly | reversed CFA-induced thermal hyperalgesia and prolonging withdrawal latency of the inflamed hind paw on a hot plate | confirmed in the independent experiment |  | did not produce significant anti-inflammatory effects within 4 h |  | attenuated the response to the intraperitoneal administration of acetic acid; also recorded: The efficacy of sevanol was also high | 10 |  |  |  | inhibited the amplitude of transient and sustained ASIC3 currents | absence of the effect | 22 | 76 | almost equipotent effect in vivo
